Source: ChEMBL document CHEMBL1201861, “Genomics of Drug Sensitity in Cancer screening data, Wellcome Trust Sanger Institute”

Columns and labels:
Experiment in all cases: cells
Type in all cases: functional, cell-based, Homo sapiens
[1] = system: TE-9; conditions: Homo sapiens, TE-9;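 also: cell growth inhibition, measured with a cell viability readout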
Description: SANGER: Inhibition of human TE-9 cell growth in a cell viability assay.

[2] = system: COLO-824; conditions: Homo sapiens, COLO-824
Description: SANGER: Inhibition of human COLO-824 cell growth in a cell viability assay.

[3] = system: TK-10; conditions: Homo sapiens, TK-10;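 also: growth inhibition of TK-10 cells, read out in a cell viability assay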
Description: SANGER: Inhibition of human TK10 cell growth in a cell viability assay.

[4] = system: Mo; conditions: Homo sapiens, Mo
Description: SANGER: Inhibition of human Mo-T cell growth in a cell viability assay.

[5] = system: NCI-H510A; conditions: Homo sapiens, NCI-H510A;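 also: growth inhibition of NCI-H510A cells, read out with a cell viability assay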
Description: SANGER: Inhibition of human NCI-H510A cell growth in a cell viability assay.

[6] = system: A3-KAW; conditions: Homo sapiens, A3-KAW;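 also: growth inhibition of human A3-KAW cells, read out with a cell viability assay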
Description: SANGER: Inhibition of human A3-KAW cell growth in a cell viability assay.

[7] = system: PSN1; conditions: Homo sapiens, PSN1;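 also: suppression of growth of human PSN1 cells, read out by a cell viability assay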
Description: SANGER: Inhibition of human PSN1 cell growth in a cell viability assay.

[8] = system: C8166; conditions: Homo sapiens, C8166;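 also: growth inhibition of human C8166 cells measured by a cell viability assay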
Description: SANGER: Inhibition of human C8166 cell growth in a cell viability assay.

[9] = system: KM-H2; conditions: Homo sapiens, KM-H2;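 also: growth inhibition of KM-H2 cells, read out by a cell viability assay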
Description: SANGER: Inhibition of human KM-H2 cell growth in a cell viability assay.

[10] = system: LB771-HNC; conditions: Homo sapiens, LB771-HNC;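 also: growth inhibition of LB771-HNC human cells, read out with a cell viability assay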
Description: SANGER: Inhibition of human LB771-HNC cell growth in a cell viability assay.

[11] = system: RPMI-8866; conditions: Homo sapiens, RPMI-8866
Description: SANGER: Inhibition of human RPMI-8866 cell growth in a cell viability assay.

[12] = system: EW-16; conditions: Homo sapiens, EW-16;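 also: growth inhibition of human EW-16 cells, read out as cell viability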
Description: SANGER: Inhibition of human EW-16 cell growth in a cell viability assay.

[13] = system: IST-MEL1; conditions: Homo sapiens, IST-MEL1;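 also: growth inhibition of the cell line, read out with a cell viability assay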
Description: SANGER: Inhibition of human IST-MEL1 cell growth in a cell viability assay.

[14] = system: KG-1; conditions: Homo sapiens, KG-1;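 also: growth inhibition of KG-1 cells, read out by a cell viability assay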
Description: SANGER: Inhibition of human KG-1 cell growth in a cell viability assay.

[15] = system: SK-N-FI; conditions: Homo sapiens, SK-N-FI;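 also: cell viability assay measuring growth inhibition of human SK-N-FI cells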
Description: SANGER: Inhibition of human SK-N-FI cell growth in a cell viability assay.

[16] = system: MZ2-MEL; conditions: Homo sapiens, MZ2-MEL;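 also: growth inhibition of MZ2-MEL cells read out with a cell viability assay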
Description: SANGER: Inhibition of human MZ2-MEL cell growth in a cell viability assay.

[17] = system: SJSA-1; conditions: Homo sapiens, SJSA-1;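 also: growth inhibition of human SJSA-1 cells, read out through a cell viability measurement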
Description: SANGER: Inhibition of human SJSA-1 cell growth in a cell viability assay.

[18] = system: OVCAR-4; conditions: Homo sapiens, OVCAR-4;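 also: growth inhibition of human OVCAR-4 cells, measured with a cell viability assay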
Description: SANGER: Inhibition of human OVCAR-4 cell growth in a cell viability assay.

[19] = system: LU-134-A; conditions: Homo sapiens, LU-134-A
Description: SANGER: Inhibition of human LU-134-A cell growth in a cell viability assay.

[20] = system: HOP-62; conditions: Homo sapiens, HOP-62;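 also: cell growth inhibition determined with a viability assay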
Description: SANGER: Inhibition of human HOP-62 cell growth in a cell viability assay.

[21] = system: LOX IMVI; conditions: Homo sapiens, LOX IMVI
Description: SANGER: Inhibition of human LOXIMVI cell growth in a cell viability assay.

[22] = system: NCI-H1838; conditions: Homo sapiens, NCI-H1838;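 also: growth inhibition of NCI-H1838 cells, determined with a cell viability readout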
Description: SANGER: Inhibition of human NCI-H1838 cell growth in a cell viability assay.

[23] = system: BB65-RCC; conditions: Homo sapiens, BB65-RCC;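 also: growth inhibition of the cell line, measured with a cell viability assay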
Description: SANGER: Inhibition of human BB65-RCC cell growth in a cell viability assay.

[24] = system: MHH-NB-11; conditions: Homo sapiens, MHH-NB-11;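 also: growth inhibition of human MHH-NB-11 cells, read out by a cell viability assay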
Description: SANGER: Inhibition of human MHH-NB-11 cell growth in a cell viability assay.

[25] = system: NCI-H82; conditions: Homo sapiens, NCI-H82;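 also: growth inhibition of NCI-H82 cells, measured with a cell viability readout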
Description: SANGER: Inhibition of human NCI-H82 cell growth in a cell viability assay.

[26] = system: KNS-81-FD; conditions: Homo sapiens, KNS-81-FD;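 also: growth inhibition of KNS-81-FD cells, read out with a cell viability assay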
Description: SANGER: Inhibition of human KNS-81-FD cell growth in a cell viability assay.

[27] = system: DJM-1; conditions: Homo sapiens, DJM-1;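 also: growth inhibition of human DJM-1 cells, read out by a cell viability assay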
Description: SANGER: Inhibition of human DJM-1 cell growth in a cell viability assay.

[28] = system: EOL1; conditions: Homo sapiens, EOL1;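 also: growth inhibition of EoL-1 cells, read out by a cell viability assay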
Description: SANGER: Inhibition of human EoL-1-cell cell growth in a cell viability assay.

[29] = system: U-266; conditions: Homo sapiens, U-266
Description: SANGER: Inhibition of human U-266 cell growth in a cell viability assay.

[30] = system: GB-1; conditions: Homo sapiens, GB-1;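 also: growth of GB-1 cells judged by a viability assay, IC50 marks the concentration inhibiting growth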
Description: SANGER: Inhibition of human GB-1 cell growth in a cell viability assay.

[31] = system: LNCaP-Clone-FGC; conditions: Homo sapiens, LNCaP-Clone-FGC
Description: SANGER: Inhibition of human LNCaP-Clone-FGC cell growth in a cell viability assay.

[32] = system: NCI-H23; conditions: Homo sapiens, NCI-H23;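 also: cell viability assay measuring growth inhibition of NCI-H23 cells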
Description: SANGER: Inhibition of human NCI-H23 cell growth in a cell viability assay.

[33] = system: IST-MES1; conditions: Homo sapiens, IST-MES1;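 also: growth inhibition of IST-MES1 cells, measured with a cell viability assay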
Description: SANGER: Inhibition of human IST-MES1 cell growth in a cell viability assay.

[34] = system: KY821; conditions: Homo sapiens, KY821;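 also: growth inhibition of human KY821 cells, read out by a cell viability assay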
Description: SANGER: Inhibition of human KY821 cell growth in a cell viability assay.

[35] = system: SW872; conditions: Homo sapiens, SW872;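 also: growth inhibition of SW872 cells, read out by a viability assay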
Description: SANGER: Inhibition of human SW872 cell growth in a cell viability assay.

[36] = system: TE-5; conditions: Homo sapiens, TE-5;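 also: inhibition of cell growth, read out by a cell viability assay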
Description: SANGER: Inhibition of human TE-5 cell growth in a cell viability assay.

[37] = system: OMC-1; conditions: Homo sapiens, OMC-1;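 also: growth inhibition of the OMC-1 cell line, measured by a cell viability assay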
Description: SANGER: Inhibition of human OMC-1 cell growth in a cell viability assay.

[38] = system: BB49-HNC; conditions: Homo sapiens, BB49-HNC;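 also: cell viability assay read-out, reported as inhibition of BB49-HNC cell growth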
Description: SANGER: Inhibition of human BB49-HNC cell growth in a cell viability assay.

[39] = system: ES5; conditions: Homo sapiens, ES5;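 also: growth inhibition of human ES5 cells, read out by a cell viability assay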
Description: SANGER: Inhibition of human ES5 cell growth in a cell viability assay.

[40] = system: L-363; conditions: Homo sapiens, L-363
Description: SANGER: Inhibition of human L-363 cell growth in a cell viability assay.

[41] = system: KNS-42; conditions: Homo sapiens, KNS-42;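 also: growth inhibition of KNS-42 cells, read out with a cell viability assay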
Description: SANGER: Inhibition of human KNS-42 cell growth in a cell viability assay.

[42] = system: LXF-289 cell line; conditions: Homo sapiens, LXF-289
Description: SANGER: Inhibition of human LXF-289 cell growth in a cell viability assay.

[43] = system: ES7; conditions: Homo sapiens, ES7;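 also: growth inhibition of cultured human ES7 cells, read out as cell viability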
Description: SANGER: Inhibition of human ES7 cell growth in a cell viability assay.

[44] = system: MPP-89; conditions: Homo sapiens, MPP-89;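 also: growth inhibition of human MPP-89 cells, read out with a cell viability assay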
Description: SANGER: Inhibition of human MPP-89 cell growth in a cell viability assay.

[45] = system: NB6; conditions: Homo sapiens, NB6;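 also: growth inhibition of NB6 cells, read out by a cell viability assay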
Description: SANGER: Inhibition of human NB6 cell growth in a cell viability assay.

[46] = system: SF-539; conditions: Homo sapiens, SF-539;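 also: Read-out is a cell viability assay, with IC50 reflecting inhibition of cell growth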
Description: SANGER: Inhibition of human SF539 cell growth in a cell viability assay.

[47] = system: K5; conditions: Homo sapiens, K5
Description: SANGER: Inhibition of human K5 cell growth in a cell viability assay.

[48] = system: LS-411N; conditions: Homo sapiens, LS-411N
[49] = system: LB2518-MEL; conditions: Homo sapiens, LB2518-MEL;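 also: growth inhibition of human LB2518-MEL cells, measured with a cell viability assay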
Description: SANGER: Inhibition of human LB2518-MEL cell growth in a cell viability assay.

Compound `OCCCNc1cc(-c2ccnc(Nc3cccc(Cl)c3)n2)ccn1` has an IC50 [1] greater than 256 nM, an IC50 [2] greater than 256 nM and an IC50 [3] of 57 nM. The IC50 [4] was greater than 256 nM, the IC50 [5] was greater than 256 nM and the IC50 [6] was 19.9 nM. For the same compound, the IC50 [7] was 15.2 nM, the IC50 [8] was greater than 256 nM and the IC50 [9] was greater than 256 nM. For the same compound, the IC50 [10] was 161 nM, the IC50 [11] was 73.8 nM and the IC50 [12] was 32.8 nM. It also gave an IC50 [13] of 126 nM, an IC50 [14] greater than 256 nM and an IC50 [15] greater than 256 nM. It also gave an IC50 [16] of 62.7 nM, an IC50 [17] of 60.7 nM and an IC50 [18] greater than 256 nM. For the same compound, the IC50 [19] was 123 nM, the IC50 [20] was 41.2 nM and the IC50 [21] was 202 nM. The IC50 [22] was greater than 256 nM, the IC50 [23] was 60.1 nM and the IC50 [24] was 217 nM. It also gave an IC50 [25] greater than 256 nM, an IC50 [26] greater than 256 nM and an IC50 [27] greater than 256 nM. For the same compound, the IC50 [28] was greater than 256 nM, the IC50 [29] was greater than 256 nM and the IC50 [30] was 38 nM. The IC50 [31] was greater than 256 nM, the IC50 [32] was 245 nM and the IC50 [33] was 135 nM. For the same compound, the IC50 [34] was 90.5 nM, the IC50 [35] was 26.6 nM and the IC50 [36] was 90.5 nM. The IC50 [37] was 120 nM, the IC50 [38] was 96.3 nM and the IC50 [39] was greater than 256 nM. The IC50 [40] was 92.6 nM, the IC50 [41] was 130 nM and the IC50 [42] was 164 nM. It also gave an IC50 [43] greater than 256 nM, an IC50 [44] of 90.4 nM and an IC50 [45] greater than 256 nM. It also gave an IC50 [46] greater than 256 nM, an IC50 [47] of 18.8 nM and an IC50 [48] of 37.9 nM. For the same compound, the IC50 [49] was greater than 256 nM.
Work on `CCC/C=C/C=C/C(=O)O[C@H]1/C(=C/C(=O)OC)C[C@H]2C[C@H]([C@@H](C)O)OC(=O)C[C@H](O)C[C@@H]3C[C@H](OC(C)=O)C(C)(C)[C@](O)(C[C@@H]4C/C(=C/C(=O)OC)C[C@H](/C=C/C(C)(C)[C@]1(O)O2)O4)O3` [BRYOSTATIN 1] yielded an IC50 [1] greater than 8 nM, an IC50 [2] greater than 8 nM and an IC50 [3] greater than 8 nM. The IC50 [4] was greater than 8 nM, the IC50 [5] was greater than 8 nM and the IC50 [6] was greater than 8 nM. It also gave an IC50 [7] greater than 8 nM, an IC50 [8] greater than 8 nM and an IC50 [9] greater than 8 nM. The IC50 [10] was greater than 8 nM, the IC50 [11] was greater than 8 nM and the IC50 [12] was greater than 8 nM. For the same compound, the IC50 [13] was greater than 8 nM, the IC50 [14] was greater than 8 nM and the IC50 [15] was greater than 8 nM. The IC50 [16] was greater than 8 nM, the IC50 [17] was greater than 8 nM and the IC50 [18] was greater than 8 nM. The IC50 [19] was greater than 8 nM, the IC50 [20] was greater than 8 nM and the IC50 [21] was greater than 8 nM. The IC50 [22] was greater than 8 nM, the IC50 [23] was greater than 8 nM and the IC50 [24] was greater than 8 nM. It also gave an IC50 [25] greater than 8 nM, an IC50 [26] greater than 8 nM and an IC50 [27] greater than 8 nM. It also gave an IC50 [28] greater than 8 nM, an IC50 [29] greater than 8 nM and an IC50 [30] greater than 8 nM. It also gave an IC50 [31] greater than 8 nM, an IC50 [32] greater than 8 nM and an IC50 [33] greater than 8 nM. The IC50 [34] was greater than 8 nM, the IC50 [35] was greater than 8 nM and the IC50 [36] was greater than 8 nM. For the same compound, the IC50 [37] was greater than 8 nM, the IC50 [38] was greater than 8 nM and the IC50 [39] was greater than 8 nM. The IC50 [40] was greater than 8 nM, the IC50 [41] was greater than 8 nM and the IC50 [42] was greater than 8 nM. The IC50 [43] was greater than 8 nM, the IC50 [44] was greater than 8 nM and the IC50 [45] was greater than 8 nM. It also gave an IC50 [46] greater than 8 nM, an IC50 [47] greater than 8 nM and an IC50 [48] greater than 8 nM. It also gave an IC50 [49] greater than 8 nM.
In the case of `N[C@@H](CSC(c1ccccc1)(c1ccccc1)c1ccccc1)C(=O)O` [S-TRITYL-L-CYSTEINE], the IC50 [1] is reported as 915 nM, the IC50 [2] is reported as greater than 5120 nM and the IC50 [3] is reported as greater than 5120 nM. It also gave an IC50 [4] greater than 5120 nM, an IC50 [5] of 1380 nM and an IC50 [6] of 835 nM. The IC50 [7] was 1490 nM, the IC50 [8] was greater than 5120 nM and the IC50 [9] was 2900 nM. For the same compound, the IC50 [10] was 1950 nM, the IC50 [11] was greater than 5120 nM and the IC50 [12] was 1620 nM. The IC50 [13] was greater than 5120 nM, the IC50 [14] was greater than 5120 nM and the IC50 [15] was 3160 nM. For the same compound, the IC50 [16] was greater than 5120 nM, the IC50 [17] was 750 nM and the IC50 [18] was 3800 nM. It also gave an IC50 [19] of 4340 nM, an IC50 [20] of 2980 nM and an IC50 [21] greater than 5120 nM. For the same compound, the IC50 [22] was greater than 5120 nM, the IC50 [23] was 2380 nM and the IC50 [24] was 4670 nM. The IC50 [25] was 1200 nM, the IC50 [26] was greater than 5120 nM and the IC50 [27] was greater than 5120 nM. It also gave an IC50 [28] of 1190 nM, an IC50 [29] of 4800 nM and an IC50 [30] greater than 5120 nM. It also gave an IC50 [31] greater than 5120 nM, an IC50 [32] greater than 5120 nM and an IC50 [33] greater than 5120 nM. The IC50 [34] was 1780 nM, the IC50 [35] was 795 nM and the IC50 [36] was greater than 5120 nM. The IC50 [37] was greater than 5120 nM, the IC50 [38] was greater than 5120 nM and the IC50 [39] was greater than 5120 nM. The IC50 [40] was 1730 nM, the IC50 [41] was 2580 nM and the IC50 [42] was 977 nM. The IC50 [43] was greater than 5120 nM, the IC50 [44] was greater than 5120 nM and the IC50 [45] was 3910 nM. For the same compound, the IC50 [46] was 2060 nM, the IC50 [47] was 1040 nM and the IC50 [48] was 1520 nM. It also gave an IC50 [49] of 3710 nM.
Work on `COc1cc(-c2nn([C@H]3CC[C@H](N4CCN(C(C)=O)CC4)CC3)c3ncnc(N)c23)ccc1NC(=O)c1cc2ccccc2n1C` yielded an IC50 [1] greater than 5120 nM, an IC50 [2] greater than 5120 nM and an IC50 [3] of 596 nM. The IC50 [4] was greater than 5120 nM, the IC50 [5] was 4760 nM and the IC50 [6] was greater than 5120 nM. For the same compound, the IC50 [7] was 1140 nM, the IC50 [8] was greater than 5120 nM and the IC50 [9] was greater than 5120 nM. The IC50 [10] was greater than 5120 nM, the IC50 [11] was greater than 5120 nM and the IC50 [12] was 3590 nM. The IC50 [13] was 838 nM, the IC50 [14] was greater than 5120 nM and the IC50 [15] was greater than 5120 nM. For the same compound, the IC50 [16] was greater than 5120 nM, the IC50 [17] was greater than 5120 nM and the IC50 [18] was 1040 nM. For the same compound, the IC50 [19] was greater than 5120 nM, the IC50 [20] was 475 nM and the IC50 [21] was greater than 5120 nM. The IC50 [22] was greater than 5120 nM, the IC50 [23] was 5060 nM and the IC50 [24] was greater than 5120 nM. The IC50 [25] was greater than 5120 nM, the IC50 [26] was greater than 5120 nM and the IC50 [27] was greater than 5120 nM. The IC50 [28] was 4550 nM, the IC50 [29] was greater than 5120 nM and the IC50 [30] was 678 nM. For the same compound, the IC50 [31] was greater than 5120 nM, the IC50 [32] was greater than 5120 nM and the IC50 [33] was 1400 nM. For the same compound, the IC50 [34] was 3650 nM, the IC50 [35] was 452 nM and the IC50 [36] was greater than 5120 nM. For the same compound, the IC50 [37] was greater than 5120 nM, the IC50 [38] was greater than 5120 nM and the IC50 [39] was greater than 5120 nM. It also gave an IC50 [40] greater than 5120 nM, an IC50 [41] greater than 5120 nM and an IC50 [42] of 757 nM. For the same compound, the IC50 [43] was greater than 5120 nM, the IC50 [44] was greater than 5120 nM and the IC50 [45] was greater than 5120 nM. For the same compound, the IC50 [46] was greater than 5120 nM, the IC50 [47] was greater than 5120 nM and the IC50 [48] was greater than 5120 nM. The IC50 [49] was greater than 5120 nM.
